Measurements as given in PubChem BioAssay AID248 (DTP/NCI, 2004).
“And” between values parts separate entries of the source, which are not always exact repeats. Equal values may be shown once. Toxic doses and inconclusive results are not listed. Rule as the data show it: active = T/C of 150% or more; inactive = T/C below 125%.

Test system: L1210 leukemia ip in BDF1 mice, survival T/C
Assay: NCI In Vivo Anticancer Drug Screen. Data for tumor model L1210 Leukemia (intraperitoneal) in B6D2F1 (BDF1) mice
Conditions: endpoint: mean survival time, higher = longer survival
Method in brief: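 Mice bearing the transplanted tumor received compound or vehicle. Survival of the treated group was divided by that of the vehicle-treated control group to give the ratio.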

[1] = dose: 50.0 mg/kg/injection, schedule: Q01DX001 (ip), vehicle: saline
[2] = dose: 100.0 mg/kg/injection, schedule: Q01DX001 (ip), vehicle: saline
[3] = dose: 200.0 mg/kg/injection, schedule: Q01DX001 (ip), vehicle: saline
[4] = dose: 400.0 mg/kg/injection, schedule: Q01DX001 (ip), vehicle: saline
[5] = dose: 100.0 mg/kg/injection, schedule: Q01DX009 (ip), vehicle: saline with Tween-80
[6] = dose: 200.0 mg/kg/injection, schedule: Q01DX009 (ip), vehicle: saline with Tween-80
[7] = dose: 100.0 mg/kg/injection, schedule: Q04DX003 (ip), vehicle: saline with Tween-80
[8] = dose: 200.0 mg/kg/injection, schedule: Q04DX003 (ip), vehicle: saline with Tween-80
[9] = dose: 100.0 mg/kg/injection, schedule: Q04DX002 (ip), vehicle: saline

Measured: T/C

CNc1ncnc2c1cnn2C
inactive: dose: 5.0 mg/kg/injection, schedule: Q01DX015 (ip), vehicle: carboxymethylcellulose (CMC) 88 % of control | dose: 10.0 mg/kg/injection, schedule: Q01DX015 (ip), vehicle: carboxymethylcellulose (CMC) 97 % of control | dose: 20.0 mg/kg/injection, schedule: Q01DX015 (ip), vehicle: carboxymethylcellulose (CMC) 100 % of control | dose: 40.0 mg/kg/injection, schedule: Q01DX015 (ip), vehicle: carboxymethylcellulose (CMC) 93 % of control | dose: 80.0 mg/kg/injection, schedule: Q01DX015 (ip), vehicle: carboxymethylcellulose (CMC) 105 % of control | dose: 100.0 mg/kg/injection, schedule: Q01DX001 (ip), vehicle: carboxymethylcellulose (CMC) 101 % of control | dose: 200.0 mg/kg/injection, schedule: Q01DX001 (ip), vehicle: carboxymethylcellulose (CMC) 103 % of control | dose: 400.0 mg/kg/injection, schedule: Q01DX001 (ip), vehicle: carboxymethylcellulose (CMC) 106 % of control

O=C(CCCC(=O)N/N=C/c1ccccc1Cl)N/N=C\c1ccccc1Cl
inactive: [1] 103 % of control | [2] 100 % of control | [3] 110 % of control | [4] 110 % of control

CSCOC1C(COC(c2ccccc2)(c2ccccc2)c2ccccc2)OC(OCc2ccccc2)C(NC(C)=O)C1OCc1ccccc1 (configuration not stated)
inactive: dose: 25.0 mg/kg/injection, schedule: Q01DX001 (ip), vehicle: saline with Tween-80 95 % of control | dose: 50.0 mg/kg/injection, schedule: Q01DX001 (ip), vehicle: saline with Tween-80 91 % of control | dose: 100.0 mg/kg/injection, schedule: Q01DX001 (ip), vehicle: saline with Tween-80 101 % of control and 91 % of control | dose: 400.0 mg/kg/injection, schedule: Q01DX001 (ip), vehicle: saline with Tween-80 94 % of control

CCN(CC)C(=O)OCCN1C(=O)C2C3CCC(O3)C2C1=O (configuration not stated)
inactive: dose: 100.0 mg/kg/injection, schedule: Q04DX003 (ip), vehicle: Klucel (hydroxypropylcellulose) (HPC) 93 % of control | dose: 200.0 mg/kg/injection, schedule: Q04DX003 (ip), vehicle: Klucel (hydroxypropylcellulose) (HPC) 92 % of control | dose: 400.0 mg/kg/injection, schedule: Q04DX003 (ip), vehicle: Klucel (hydroxypropylcellulose) (HPC) 93 % of control

CC(C)(C)N(O)C(=O)NCCCl
inactive: dose: 100.0 mg/kg/injection, schedule: Q01DX001 (ip), vehicle: Klucel (hydroxypropylcellulose) (HPC) 97 % of control | dose: 200.0 mg/kg/injection, schedule: Q01DX001 (ip), vehicle: Klucel (hydroxypropylcellulose) (HPC) 92 % of control | dose: 400.0 mg/kg/injection, schedule: Q01DX001 (ip), vehicle: Klucel (hydroxypropylcellulose) (HPC) 97 % of control

NC(N)=N/N=C\c1ccc(O)c(O)c1
inactive: dose: 15.0 mg/kg/injection, schedule: Q01DX Z (ip), vehicle: carboxymethylcellulose (CMC) 97 % of control | dose: 30.0 mg/kg/injection, schedule: Q01DX Z (ip), vehicle: carboxymethylcellulose (CMC) 97 % of control | dose: 60.0 mg/kg/injection, schedule: Q01DX Z (ip), vehicle: carboxymethylcellulose (CMC) 113 % of control | dose: 120.0 mg/kg/injection, schedule: Q01DX Z (ip), vehicle: carboxymethylcellulose (CMC) 116 % of control | dose: 120.0 mg/kg/injection, schedule: Q01DX Z (oral), vehicle: carboxymethylcellulose (CMC) 109 % of control | dose: 240.0 mg/kg/injection, schedule: Q01DX Z (oral), vehicle: carboxymethylcellulose (CMC) 107 % of control | dose: 480.0 mg/kg/injection, schedule: Q01DX Z (oral), vehicle: carboxymethylcellulose (CMC) 103 % of control | dose: 960.0 mg/kg/injection, schedule: Q01DX Z (oral), vehicle: carboxymethylcellulose (CMC) 114 % of control

NC(=O)C1CCC1C(N)=O (configuration not stated)
inactive: [5] 108 % of control | [6] 101 % of control | dose: 400.0 mg/kg/injection, schedule: Q01DX009 (ip), vehicle: saline with Tween-80 103 % of control

C=CC[P+](Cc1cccc(C)c1)(c1ccccc1)c1ccccc1
inactive: dose: 6.25 mg/kg/injection, schedule: Q01DX009 (ip), vehicle: saline with Tween-80 107 % of control | dose: 12.5 mg/kg/injection, schedule: Q01DX009 (ip), vehicle: saline with Tween-80 115 % of control

CC(C)c1cc(C(C)C)c(S(=O)(=O)C2CC2c2ccccc2)c(C(C)C)c1 (configuration not stated)
inactive: [2] 112 % of control | [3] 93 % of control | [4] 91 % of control

c1ccc(-n2ncn[n+]2-c2ccccc2)cc1
inactive: dose: 10.0 mg/kg/injection, schedule: Q01DX001 (ip), vehicle: saline 98 % of control | dose: 20.0 mg/kg/injection, schedule: Q01DX001 (ip), vehicle: saline 90 % of control | dose: 40.0 mg/kg/injection, schedule: Q01DX001 (ip), vehicle: saline 95 % of control | dose: 80.0 mg/kg/injection, schedule: Q01DX001 (ip), vehicle: saline 109 % of control

Nc1ccc(S(=O)[O-])cc1.Nc1ccc(S(=O)[O-])cc1.[Zn+2]
inactive: dose: 75.0 mg/kg/injection, schedule: Q01DX001 (ip), vehicle: saline 95 % of control | dose: 150.0 mg/kg/injection, schedule: Q01DX001 (ip), vehicle: saline 96 % of control | dose: 300.0 mg/kg/injection, schedule: Q01DX001 (ip), vehicle: saline 102 % of control

Cc1ccc(C)c(SC2CCCCC2=O)c1 (configuration not stated)
inactive: [2] 94 % of control | [3] 101 % of control | [4] 97 % of control

O=c1[nH]c(=O)c2ncsc2[nH]1
inactive: [7] 103 % of control | [8] 110 % of control

Cc1cccc(Cl)c1OC(=O)Nc1ccccc1
inactive: dose: 50.0 mg/kg/injection, schedule: Q04DX002 (ip), vehicle: Klucel (hydroxypropylcellulose) (HPC) 98 % of control | dose: 100.0 mg/kg/injection, schedule: Q04DX002 (ip), vehicle: Klucel (hydroxypropylcellulose) (HPC) 98 % of control | dose: 200.0 mg/kg/injection, schedule: Q04DX002 (ip), vehicle: Klucel (hydroxypropylcellulose) (HPC) 102 % of control

c1ccc(N2CN(c3ccccc3)N(c3ccccc3)CN2c2ccccc2)cc1
inactive: dose: 100.0 mg/kg/injection, schedule: Q01DX001 (ip), vehicle: other 92 % of control | dose: 200.0 mg/kg/injection, schedule: Q01DX001 (ip), vehicle: other 89 % of control

O=S(=O)([O-])NC1CCCCC1.O=S(=O)([O-])NC1CCCCC1.[Hg+2].[Hg+2].[Hg+2].[O-2].[O-2]
inactive: dose: 0.5 mg/kg/injection, schedule: Q01DX009 (ip), vehicle: saline with Tween-80 100 % of control | dose: 0.5 mg/kg/injection, schedule: Q04DX003 (ip), vehicle: saline sonified 97 % of control | dose: 1.0 mg/kg/injection, schedule: Q01DX009 (ip), vehicle: saline with Tween-80 94 % of control | dose: 1.0 mg/kg/injection, schedule: Q04DX003 (ip), vehicle: saline sonified 101 % of control | dose: 2.0 mg/kg/injection, schedule: Q01DX009 (ip), vehicle: saline with Tween-80 96 % of control | dose: 2.0 mg/kg/injection, schedule: Q04DX003 (ip), vehicle: saline sonified 94 % of control | dose: 4.0 mg/kg/injection, schedule: Q01DX009 (ip), vehicle: saline with Tween-80 93 % of control

CC1(C)N=C1c1ccccc1
inactive: [9] 98 % of control | dose: 200.0 mg/kg/injection, schedule: Q04DX002 (ip), vehicle: saline 117 % of control

C1CCN(/N=N/c2nn[nH]n2)CC1
inactive: [7] 94 % of control | [8] 91 % of control | dose: 400.0 mg/kg/injection, schedule: Q04DX003 (ip), vehicle: saline with Tween-80 94 % of control

O=C(NC1C=CCCC1)c1ccccc1 (configuration not stated)
inactive: dose: 50.0 mg/kg/injection, schedule: Q01DX009 (ip), vehicle: saline with Tween-80 102 % of control | [5] 96 % of control | [6] 96 % of control

C[S+](C)C12CC3CC(CC(C3)C1)C2
inactive: dose: 25.0 mg/kg/injection, schedule: Q01DX009 (ip), vehicle: saline 108 % of control | dose: 25.0 mg/kg/injection, schedule: Q04DX002 (ip), vehicle: saline 102 % of control | dose: 50.0 mg/kg/injection, schedule: Q01DX009 (ip), vehicle: saline 94 % of control | dose: 50.0 mg/kg/injection, schedule: Q04DX002 (ip), vehicle: saline 102 % of control | dose: 100.0 mg/kg/injection, schedule: Q01DX009 (ip), vehicle: saline 86 % of control | [9] 94 % of control and 96 % of control

C[N+](C)(C)Cc1ccccc1C[N+](C)(C)C
inactive: [1] 113 % of control | [2] 101 % of control | [3] 97 % of control

CCCCCC(C)C1=NC(C)(C)CC(C)O1 (configuration not stated)
inactive: dose: 5.0 mg/kg/injection, schedule: Q04DX003 (ip), vehicle: saline with Tween-80 101 % of control | dose: 10.0 mg/kg/injection, schedule: Q04DX003 (ip), vehicle: saline with Tween-80 95 % of control | dose: 20.0 mg/kg/injection, schedule: Q04DX003 (ip), vehicle: saline with Tween-80 108 % of control
